From paper PMC4167230, “Hydrophobic Substituents of the Phenylmethylsulfamide Moiety Can Be Used for the Development of New Selective Carbonic Anhydrase Inhibitors” (BioMed Research International, 2014) come the findings set out here.

Structures are written as SMILES.

Assay in all cases: stopped-flow CO2 hydration assay
Common to all, as to type: biochemical

One assay deals with T1, hCA I (Homo sapiens, UniProt P00915).
T1 construct: gene CA1; cytosolic isoform
As to conditions: read-out: K I (nM)∗ / hCA I. An excerpt: stopped-flow CO2 hydration assay on hCA I

In the next assay the target is T2, hCA II (Homo sapiens, UniProt P00918).
T2 construct: gene CA2; cytosolic isoform; one molecule in the asymmetric unit
As to conditions: read-out: K I (nM)∗ / hCA II. From the text:
stopped-flow CO2 hydration assay on hCA II

A further assay concerns the target T3, hCA XII (Homo sapiens, UniProt O43570).
T3 construct: gene CA12; transmembrane isoform
As to conditions: read-out: K I (nM)∗ / hCA XII. An excerpt:
stopped-flow CO2 hydration assay on hCA XII

T1 sequence (P00915 2-261): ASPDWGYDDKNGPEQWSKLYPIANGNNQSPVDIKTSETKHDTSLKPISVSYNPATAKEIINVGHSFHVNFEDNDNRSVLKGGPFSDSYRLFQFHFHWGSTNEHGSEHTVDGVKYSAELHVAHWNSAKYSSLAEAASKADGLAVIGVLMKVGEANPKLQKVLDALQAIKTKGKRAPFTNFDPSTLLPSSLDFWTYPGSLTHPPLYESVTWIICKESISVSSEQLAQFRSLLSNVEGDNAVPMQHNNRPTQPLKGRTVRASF
T3 sequence (O43570 25-354): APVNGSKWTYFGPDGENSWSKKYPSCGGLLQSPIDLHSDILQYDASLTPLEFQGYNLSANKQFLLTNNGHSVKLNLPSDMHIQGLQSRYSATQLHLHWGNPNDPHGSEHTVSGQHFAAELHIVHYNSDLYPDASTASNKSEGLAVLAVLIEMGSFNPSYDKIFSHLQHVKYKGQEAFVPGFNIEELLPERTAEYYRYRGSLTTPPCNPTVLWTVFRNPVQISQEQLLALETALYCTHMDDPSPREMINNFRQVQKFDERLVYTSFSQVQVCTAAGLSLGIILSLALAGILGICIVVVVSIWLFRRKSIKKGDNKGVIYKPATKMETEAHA

For `CC#CCOc1ccc(CNS(N)(=O)=O)cc1` [compound 14, N-[4-(But-2-yn-1-yloxy)benzyl]sulfuric Diamide], the Ki at hCA I worked out at 1810 nM; at hCA II, 9.5 nM; at hCA XII, 8.1 nM.
For `Cc1cc(COc2ccc(CNS(N)(=O)=O)cc2)c2ccccc2n1` [compound 16, N-{4-[(2-Methylquinolin-4-yl)methoxy]benzyl}sulfuric Diamide] the same measures were 1440 nM, 43.3 nM and 6.6 nM.
With `COc1ccc(CNS(N)(=O)=O)cc1` [compound 12, N-(4-Methoxybenzyl)sulfuric Diamide], the Ki on hCA I was 4050 nM; at hCA II, 134 nM; at hCA XII, 6.6 nM.
Taken in the same sequence, the figures for `NS(=O)(=O)NCc1ccc(O)cc1` [compound 11, N-(4-Hydroxybenzyl)sulfuric Diamide] were 2180 nM, 74.1 nM and 5.8 nM.
For `Cc1cc(COc2ccc(C=NS(N)(=O)=O)cc2)c2ccccc2n1` [compound 15, N-({4-[(2-Methylquinolin-4-yl)methoxy]phenyl}methylidene)sulfuric Diamide] the same measures were 1650 nM, 188 nM and 6.5 nM.
In the case of `CC#CCOc1ccc(C=NS(N)(=O)=O)cc1` [compound 13, N-([4-(But-2-yn-1-yloxy)phenyl]methylidene)sulfuric Diamide], the results for the Ki on hCA I, on hCA II and at hCA XII were 1940 nM, 9.8 nM and 8.4 nM, respectively.
